Source: patent US5424309A, “N-substituted acylamino acid compounds, process for their production and their use” (Banyu Pharmaceutical Co., Ltd., priority 1988, dated 1995)
pIC50: −log10 of the molar value.

tested on: marmosets; experiment: Hypotensive activities in monkeys (furosemide-treated marmosets, oral administration); format: in vivo; settings: 30 mg/kg orally; three marmosets; furosemide 30 mg/kg pretreatment (high renin active state); FIG. 1
Description: The hypotensive activities were measured in accordance with a method disclosed in J. Cardiovascular Pharmacology, Vol. 7, (Suppl. 4) S58-61 (1985). Namely, 30 mg/kg of furosemide (diuretic) was intracutaneously injected to three marmosets i.e. small size monkeys to produce a high renin active state. To these marmosets, 30 mg/kg of the compound of Example 1 was orally administered, whereupon the hypotensive activities were measured.

SMILES	hypotensive activities
CCCC[C@H](NC(=O)[C@H](Cc1cccc2ccccc12)CS(=O)(=O)CC(COC(C)=O)OC(C)=O)C(=O)N[C@@H](CC1CCCCC1)[C@@H](O)[C@@H](O)CN1CCOCC1 (mixture of isomers) [Example 1, (2S, 3R, 4S)-4-{L-N-[(2S)-3-[(2RS)-2,3-diacetoxypropyl]sulfonyl-2-(1-naphthylmethyl)propionyl]norleucyl}amino-5-cyclohexyl-1-morpholino-2,3-pentanediol]	exhibits hypotensive activities by the oral administration

target: T1, human plasma renin (Homo sapiens, UniProt P00797); experiment: Renin inhibiting activities (human plasma, angiotensin I by radio immunoassay); format: biochemical; settings: pH7.4, 37° C., one hour, read-out: IC50 (50 % inhibition concentrations), renin inhibiting activity
T1 construct: from tissue; host or cells: human plasma
T1 sequence (P00797 67-406): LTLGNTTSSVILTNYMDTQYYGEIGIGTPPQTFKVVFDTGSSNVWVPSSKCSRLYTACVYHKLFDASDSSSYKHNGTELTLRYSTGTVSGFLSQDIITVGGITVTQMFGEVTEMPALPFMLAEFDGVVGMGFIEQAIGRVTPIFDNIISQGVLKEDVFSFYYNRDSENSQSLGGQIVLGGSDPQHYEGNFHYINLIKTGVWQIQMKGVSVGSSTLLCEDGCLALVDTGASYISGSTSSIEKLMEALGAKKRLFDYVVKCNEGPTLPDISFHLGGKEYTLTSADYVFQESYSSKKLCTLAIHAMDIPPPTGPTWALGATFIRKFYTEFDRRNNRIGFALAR
Description: To 156 μl of a 0.2M sodium phosphate buffer solution (pH7.4), 40 μl of a solution mixture of 34 mM 8-hydroxyquinoline and 100 mM disodium ethylenediamine tetraacetate, 4 μl of dimethyl sulfoxide or a dimethyl sulfoxide solution of test compound and 200 μl of human plasma were added and reacted at 37° C. for one hour. Then, pepstatin was added thereto to terminate the reaction, and the amount of the resulting angiotension I was measured by radio immunoassay whereby the inhibiting activity was determined.

SMILES	pIC50
CCCC[C@H](NC(=O)[C@H](Cc1cccc2ccccc12)CS(=O)(=O)C1CCC(OC(C)=O)C1)C(=O)N[C@@H](CC1CCCCC1)[C@@H](O)[C@@H](O)CN1CCOCC1 (single isomer, unassigned) [Example 33 (having a low Rf value)]	8.96
CCCC[C@H](NC(=O)[C@H](Cc1cccc2ccccc12)CS(=O)(=O)CC(COC(C)=O)OC)C(=O)N[C@@H](CC1CCCCC1)[C@@H](O)[C@@H](O)CN1CCOCC1 (single isomer, unassigned) [Example 39]	8.89
CCCC[C@H](NC(=O)[C@H](Cc1cccc2ccccc12)CS(=O)(=O)CC(O)COC(C)=O)C(=O)N[C@@H](CC1CCCCC1)[C@@H](O)[C@@H](O)CN1CCOCC1 (some centres unmarked) [Example 11]	8.20
CCCC[C@H](NC(=O)[C@H](Cc1ccccc1)CS(=O)(=O)CC(COC(=O)CC)OC(=O)CC)C(=O)N[C@@H](CC1CCCCC1)[C@@H](O)[C@@H](O)CN1CCOCC1 (mixture of isomers) [Example 17, (2S,3R,4S)-4-{L-N-[(2S)-3-[(2RS)-2,3-dipropionyloxypropyl]sulfonyl-2-benzylpropionyl]norleucyl}amino-5-cyclohexyl-1-morpholino-2,3-pentanediol]	8.08
CCCC[C@H](NC(=O)[C@H](Cc1cccc2ccccc12)CS(=O)(=O)CC(COC(C)=O)OCC)C(=O)N[C@@H](CC1CCCCC1)[C@@H](O)[C@@H](O)CN1CCOCC1 (mixture of isomers) [Example 43, (2S,3R,4S)-4-{L-N-[(2S)-3-[(2RS)-3-acetoxy-2-ethoxypropyl]sulfonyl-2-(1-naphthylmethyl)propionyl]norleucyl}amino-5-cyclohexyl-1-morpholino-2,3-pentanediol]	8.62
CCCC[C@H](NC(=O)[C@H](Cc1cccc2ccccc12)CS(=O)(=O)CC(O)COC(=O)CC)C(=O)N[C@@H](CC1CCCCC1)[C@@H](O)[C@@H](O)CN1CCOCC1 (mixture of isomers) [Example 12, (2S,3R,4S)-4-{L-N-[(2S)-3-[(2RS)-3-propionyloxy-2-hydroxypropyl]sulfonyl-2-(1-naphthylmethyl)propionyl]norleucyl}amino-5-cyclohexyl-1-morpholino-2,3-pentanediol]	8.37
CCCC[C@H](NC(=O)[C@@H](CSCC(COC(C)=O)OC(C)=O)Cc1ccccc1)C(=O)N[C@@H](CC1CCCCC1)[C@@H](O)[C@@H](O)CN1CCOCC1 (mixture of isomers) [Example 16, (2S,3R,4S)-4-{L-N-[(2S)-3-[(2RS)-2,3-diacetoxypropyl]thio-2-benzylpropionyl]norleucyl}amino-5-cyclohexyl-1-morpholino-2,3-pentanediol]	8.22
CCCC[C@H](NC(=O)[C@@H](CSC1CCC(OC(C)=O)C1)Cc1cccc2ccccc12)C(=O)N[C@@H](CC1CCCCC1)[C@@H](O)[C@@H](O)CN1CCOCC1 (stereo partly drawn) [Example 34, (2S,3R,4S)-4-{L-N-[(2S)-3-(3-acetoxycyclopentyl)thio-2-(1-naphthylmethyl)propionyl]norleucyl}amino-5-cyclohexyl-1-morpholino-2,3-pentanediol]	8.25
CCCC[C@H](NC(=O)[C@@H](CSCC(COC(C)=O)OC(C)=O)Cc1cccc2ccccc12)C(=O)N[C@@H](CC1CCCCC1)[C@@H](O)[C@@H](O)CN1CCOCC1 (stereo partly drawn) [Example 7, (2S,3R,4S)-4-{L-N-[(2S)-3-[(2RS)-2,3,-diacetoxypropyl]thio-2-(1-naphthylmethyl)propionyl]norleucyl}amino-5-cyclohexyl-1-morpholino-2,3-pentanediol]	8.55
COC(COC(C)=O)CS(=O)(=O)C[C@@H](Cc1cccc2ccccc12)C(=O)N[C@@H](Cc1cscn1)C(=O)N[C@@H](CC1CCCCC1)[C@@H](O)[C@@H](O)CN1CCOCC1 (stereo partly drawn) [Example 44, (2S,3R,4S)-4-{L,N-[(2S)-3-[(2RS)-3-acetoxy-2-methoxypropyl]sulfonyl-2-(1-naphthylmethyl)propionyl]-(4-thiazolyl)alanyl}amino-5-cyclohexyl-1-morpholino-2,3-pentanediol]	8.74
CCCC[C@H](NC(=O)[C@H](Cc1cccc2ccccc12)CS(=O)(=O)C1CCCC1OC(C)=O)C(=O)N[C@@H](CC1CCCCC1)[C@@H](O)[C@@H](O)CN1CCOCC1 (stereo partly drawn) [Example 35, (2S,3R,4S)-4-{L-N-[(2S)-3-(2-acetoxycyclopentyl)sulfonyl-2-(1-naphthylmethyl)propionyl]norleucyl}amino-5-cyclohexyl-1-morpholino-2,3-pentanediol]	8.51
CCCC[C@H](NC(=O)[C@@H](CSCC(COC(C)=O)OC)Cc1cccc2ccccc12)C(=O)N[C@@H](CC1CCCCC1)[C@@H](O)[C@@H](O)CN1CCOCC1 (mixture of isomers) [Example 27, (2S,3R,4S)-4-{L-N-[(2S)-3-[(2RS)-3-acetoxy-2-methoxypropyl]thio-2-(1-naphthylmethyl)propionyl]norleucyl}amino-5-cyclohexyl-1-morpholino-2,3-pentanediol]	8.66
CCCC[C@H](NC(=O)[C@H](Cc1cccc2ccccc12)CS(=O)(=O)CC(COC(C)=O)OC)C(=O)N[C@@H](CC1CCCCC1)[C@@H](O)[C@@H](O)CN1CCOCC1 (mixture of isomers) [Example 29, (2S,3R,4S)-4-{L-N-[(2S)-3-[(2RS)-3-acetoxy-2-methoxypropyl]sulfonyl-2-(1-naphthylmethyl)propionyl]norleucyl}amino-5-cyclohexyl-1-morpholino-2,3-pentanediol]	9.12
CCCC[C@H](NC(=O)[C@H](Cc1cccc2ccccc12)C[S+]([O-])CC(COC(C)=O)OC(C)=O)C(=O)N[C@@H](CC1CCCCC1)[C@@H](O)[C@@H](O)CN1CCOCC1 (mixture of isomers) [Example 6 (having a high Rf value), (2S,3R,4S)-4-{L-N-[(2S)-3-[(2RS)-2,3-diacetoxypropyl]sulfinyl-2-(1-naphthylmethyl)propionyl]norleucyl}amino-5-cyclohexyl-1-morpholino-2,3-pentanediol]	8.22
CCCC[C@H](NC(=O)[C@H](Cc1cccc2ccccc12)CS(=O)(=O)CCOC(=O)OCC)C(=O)N[C@@H](CC1CCCCC1)[C@@H](O)[C@@H](O)CN1CCOCC1 [Example 5, (2S,3R,4S)-4-{L-N-[(2S)-3-(2-ethoxycarbonyloxyethyl)sulfonyl-2-(1-naphthylmethyl)propionyl]norleucyl}amino-5-cyclohexyl-1-morpholino-2,3-pentanediol]	8.30
CCCC[C@H](NC(=O)[C@H](Cc1cccc2ccccc12)CS(=O)(=O)CC(COC(C)=O)OC)C(=O)N[C@@H](CC1CCCCC1)[C@@H](O)[C@@H](O)CN1CCOCC1 (single isomer, unassigned) [Example 40]	9.00
CCCC[C@H](NC(=O)[C@H](Cc1cccc2ccccc12)CS(=O)(=O)CCOC(=O)C(C)(C)C)C(=O)N[C@@H](CC1CCCCC1)[C@@H](O)[C@@H](O)CN1CCOCC1 [Example 4]	8.11
CCCC[C@H](NC(=O)[C@H](Cc1cccc2ccccc12)CS(=O)(=O)C1CCC(OC(C)=O)C1)C(=O)N[C@@H](CC1CCCCC1)[C@@H](O)[C@@H](O)CN1CCOCC1 (single isomer, unassigned) [Example 33 (having a high Rf value)]	8.66
CCCC[C@H](NC(=O)[C@H](Cc1cccc2ccccc12)CS(=O)(=O)CC(COC(C)=O)OC(C)=O)C(=O)N[C@@H](CC1CCCCC1)[C@@H](O)[C@@H](O)CN1CCOCC1 (mixture of isomers) [Example 1, (2S, 3R, 4S)-4-{L-N-[(2S)-3-[(2RS)-2,3-diacetoxypropyl]sulfonyl-2-(1-naphthylmethyl)propionyl]norleucyl}amino-5-cyclohexyl-1-morpholino-2,3-pentanediol]	8.60
